How the values were obtained:
human EDG-1 = target: T1, human EDG-1 (Homo sapiens, UniProt P21453); assay: GPCR activation assay measuring GTP [γ-35S] binding to membranes from CHO cells expressing human EDG receptors; assay type: biochemical
T1 construct: c-myc (N); expressed in transfected cells; homogenized membranes
Protocol: A. In vitro: GPCR Activation Assay Measuring GTP [γ-^35S] Binding to Membranes Prepared from CHO Cells Expressing Human EDG Receptors
EDG-1 (S1P1) GTP [γ-^35S] binding assay: Homogenized membranes are prepared from CHO cell clones stably expressing a human EDG-1 N-terminal c-myc tag. Cells are grown in suspension in two 850 cm^2 roller bottles for three or fours days before harvesting. The cells are centrifuged down, washed once with cold PBS, and resuspended in ≦20 ml of Buffer A (20 mM HEPES, pH 7.4, 10 mM EDTA, EDTA-free complete protease inhibitor cocktail [1 tablet/25 ml]). The cell suspension is homogenized on ice, using a Polytron homogenizer at 30000 rpm at three intervals of 15 seconds each. The homogenate is first centrifuged at 2000 rpm on a tabletop low speed centrifuge for 10 minutes. The supernatant, after passing through a cell strainer, is then re-centrifuged at 50,000×g for 25 minutes at 4° C. The pellet is resuspended into buffer B (15% glycerol, 20 mM HEPES, pH 7.4, 0.1 mM EDTA, EDTA-free complete protease inhibitor cocktail [1 tablet/10 ml]). Protein concentration of the prep is determined using the BCA Protein Assay kit (Pierce) using BSA as standard. The membranes are aliquoted and kept frozen at −80° C.
Solutions of test compounds ranging from 10 mM to 0.01 nM are prepared in DMSO. S1P is diluted in 4% BSA solution as positive controls. […]

blood lymphocytes = assay: Measurement of circulating lymphocytes (blood lymphocyte depletion); assay type: in vivo, Rats (C57b1/6 male); conditions: Rattus norvegicus, oral gavage, blood collected 6 and 24 hours after administration, read-out: ED50 (effective dose required displaying 50% of blood lymphocyte depletion)
Protocol: C. In vivo: Screening Assays for Measurement of Blood Lymphocyte Depletion and Assessment of Heart Effect
Measurement of circulating lymphocytes: Compounds are dissolved in DMSO and diluted to obtain a final concentration of 4% DMSO (v/v, final concentration) and then further diluted in a constant volume of Tween80 25%/H2O, v/v. Tween80 25%/H2O (200 μl), 4% DMSO, and FTY720 (10 μg) are included as negative and positive controls, respectively. Rats (C57b1/6 male, 6–10 week-old) are administered 250–300 μL of compound solution orally by gavages under short isoflurane anesthesia.
Blood is collected from the retro-orbital sinus 6 and 24 hours after drug administration under short isoflurane anesthesia. Whole blood samples are subjected to hematology analysis. Peripheral lymphocyte counts are determined using an automated analyzer. Subpopulations of peripheral blood lymphocytes are stained by fluorochrome-conjugated specific antibodies and analyzed using a fluorescent activating cell sorter (Facscalibur). Two rats are used to assess the lymphocyte depletion activity of each compound screened. The result is an ED50, which is defined as the effective dose required displaying 50% of blood lymphocyte depletion.

T1 sequence (P21453 whole entry): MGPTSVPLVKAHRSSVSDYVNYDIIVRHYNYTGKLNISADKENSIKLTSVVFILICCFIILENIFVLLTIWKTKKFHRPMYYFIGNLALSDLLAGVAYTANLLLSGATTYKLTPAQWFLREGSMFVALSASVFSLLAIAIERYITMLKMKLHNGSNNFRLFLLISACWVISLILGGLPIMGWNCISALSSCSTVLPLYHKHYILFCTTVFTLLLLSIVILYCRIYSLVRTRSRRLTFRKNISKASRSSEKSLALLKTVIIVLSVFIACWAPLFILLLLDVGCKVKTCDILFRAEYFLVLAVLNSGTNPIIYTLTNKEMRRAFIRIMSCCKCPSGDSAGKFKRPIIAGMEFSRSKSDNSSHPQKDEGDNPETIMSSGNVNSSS

O=C(O)C1CN(Cc2ccc(SCc3ccc(-c4ccccc4)c(C(F)(F)F)c3)cc2)C1 [Compound 9, 1-[4-(2-trifluoromethyl-biphenyl-4-ylmethylsulfanyl)-benzyl]-azetidine-3-carboxylic acid]
EC50 (human EDG-1; EDG-1 (S1P1) GTP [γ-35S] binding, CHO cell membranes): 820 pM | selectivity for EDG-1 compared to one or more of the other receptors including EDG-3, EDG-5, EDG-6 and EDG-8 (human EDG-1; GTP [γ-35S] binding assays): at least 1000 fold | ED50 (blood lymphocytes): < 0.1 mg/kg

— patent US7060697B2, “Immunosuppressant compounds and compositions” (IRM LLC, priority 2003, dated 2006)
